Measured values reported in the NIST ThermoML archive (doi:10.1021/je700329a).
“And” between values parts separate entries of the source, which are not always exact repeats. Identical values can stand only once.

How the values were obtained:
[1] = 101.33 kPa, Liquid; for viscosity: Stabinger Viscometer; for mass density: Vibrating tube method; for speed of sound: DSA 5000; for electrical conductivity: Alternating current cell with electrodes
[2] = wn = mass fraction of the nth substance listed; conditions: 101 kPa, Liquid; for electrical conductivity: Alternating current cell with electrodes; for kinematic viscosity: Capillary tube (Ostwald / Ubbelohde) method; for speed of sound: Pulse-echo method; for mass density: Vibrating tube method

CCCCCC[n+]1ccn(C)c1.O=S(=O)([N-]S(=O)(=O)C(F)(F)F)C(F)(F)F
[1]
Conditions	electrical conductivity [S/m]	mass density	speed of sound	viscosity
258.15 K	–	1407.6 kg/m3	–	941.8 mPa·s
263.15 K	–	1403.1 kg/m3	–	612.7 mPa·s
268.15 K	–	1398.5 kg/m3	–	417.4 mPa·s
273.15 K	–	1394 kg/m3	–	291.2 mPa·s
278.15 K	–	1389.5 kg/m3	–	207.6 mPa·s
283.15 K	–	1385 kg/m3 and 1385.9 kg/m3 and 1386 kg/m3	1262 m/s and 1262.4 m/s	153.3 mPa·s
288.15 K	0.135	1380.5 kg/m3	–	115.8 mPa·s
293.15 K	0.173	1376.7 kg/m3 [middle of 4 runs]	1238.4 m/s and 1238.5 m/s	89.54 mPa·s and 89.26 mPa·s
298.15 K	0.218	1372.1 kg/m3 [middle of 4 runs]	1226.8 m/s and 1226.9 m/s	70.09 mPa·s and 70.29 mPa·s
303.15 K	–	1367.3 kg/m3 and 1367.5 kg/m3 and 1367.6 kg/m3	1215.5 m/s and 1215.6 m/s	56.11 mPa·s
308.15 K	0.328	–	–	–
313.15 K	–	1358.3 kg/m3 and 1358.4 kg/m3	1193.3 m/s and 1193.4 m/s	37.41 mPa·s
323.15 K	0.548	1349.3 kg/m3 and 1349.4 kg/m3	1171.5 m/s and 1171.6 m/s	26.25 mPa·s
333.15 K	–	1340.3 kg/m3 and 1340.4 kg/m3	1149.8 m/s and 1150.4 m/s	19.22 mPa·s
343.15 K	–	1331.3 kg/m3 and 1331.4 kg/m3	1128.4 m/s and 1129.6 m/s	14.58 mPa·s
353.15 K	–	1322.5 kg/m3	–	11.38 mPa·s
363.15 K	–	1313.6 kg/m3	–	9.128 mPa·s
373.15 K	–	1304.8 kg/m3	–	7.463 mPa·s

CCCCCC[n+]1ccn(C)c1.O=S(=O)([N-]S(=O)(=O)C(F)(F)F)C(F)(F)F + O
[2]
Conditions	electrical conductivity [S/m]	kinematic viscosity [m2/s]	mass density [kg/m3]	speed of sound [m/s]
288.15 K, w2 = 1e-05	0.135	–	–	–
288.15 K, w2 = 0.00094	0.142	–	–	–
293.15 K, w2 = 1e-05	0.173	–	–	–
293.15 K, w2 = 2e-05	–	6.53e-05	–	–
293.15 K, w2 = 0.00094	0.18	–	–	–
293.15 K, w2 = 0.0011	–	6.16e-05	–	–
293.15 K, w2 = 0.00727	0.232	–	–	–
293.15 K, w2 = 0.00784	0.237	–	–	–
293.15 K, w2 = 0.0082	–	4.55e-05	–	–
293.15 K, w2 = 0.00898	0.246	–	–	–
298.15 K, w2 = 1e-05	0.218	5.12e-05	–	–
298.15 K, w2 = 2e-05	–	5.13e-05	–	–
298.15 K, w2 = 3.5e-05	–	–	1372.07	1226.6
298.15 K, w2 = 0.00094	0.227	–	–	–
298.15 K, w2 = 0.00102	–	–	1370.45	–
298.15 K, w2 = 0.00106	–	–	–	1227.4
298.15 K, w2 = 0.00112	–	4.85e-05	–	–
298.15 K, w2 = 0.00722	–	–	1367.04	–
298.15 K, w2 = 0.00727	0.289	–	–	–
298.15 K, w2 = 0.007315	–	–	–	1230.3
298.15 K, w2 = 0.00784	0.295	–	–	–
298.15 K, w2 = 0.00819	–	3.63e-05	–	–
298.15 K, w2 = 0.00898	0.306	–	–	–
308.15 K, w2 = 1e-05	0.328	–	–	–
308.15 K, w2 = 0.00094	0.34	–	–	–
323.15 K, w2 = 1e-05	0.548	–	–	–
323.15 K, w2 = 0.00094	0.566	–	–	–
